Converted amounts (≈) assume the structure as drawn. Like-named read-outs stand apart in the source and are kept apart here.
How the values were obtained:
Ent. cloacae A-9659 = assay: MIC, tube dilution, Enterobacter cloacae A9659; type: cell-based; conditions: Enterobacter cloacae, A9659, Enterobacter cloacae A9659; overnight 37° C.; read-out: Minimum Inhibitory Concentration (M.I.C.)
Source text: (§1) Representative compounds of the present invention were subjected to in vitro antibiotic screening against a variety of microorganisms.

E. coli A-15119 = assay: MIC, tube dilution, Escherichia coli A15119; type: cell-based; conditions: Escherichia coli, A15119, E. coli A15119; overnight 37° C.; read-out: Minimum Inhibitory Concentration (M.I.C.)
Source text: as §1

Ser. marcescens A-20019 = assay: MIC, tube dilution, Serratia marcescens A20019; type: cell-based; conditions: Serratia marcescens, A20019, Serratia marcescens A20019; overnight 37° C.; read-out: Minimum Inhibitory Concentration (M.I.C.)
Source text: as §1

Str. pyogenes A-9604 = assay: MIC, tube dilution, Streptococcus pyogenes A9604; type: cell-based; conditions: Streptococcus pyogenes, A9604, Str. pyogenes A9604; overnight 37° C., Nutrient Broth; read-out: Minimum Inhibitory Concentration (M.I.C.)
Source text: as §1

[1] = system: Staph. aureus A-9537 and 50% serum; assay: MIC, tube dilution, Staph. aureus A9537 + 50% serum; type: cell-based, Staphylococcus aureus; conditions: Staphylococcus aureus, overnight 37° C., read-out: Minimum Inhibitory Concentration (M.I.C.)
Source text: as §1

Proteus rettgeri A21203 = assay: MIC, tube dilution, Proteus rettgeri A21203; type: cell-based; conditions: Providencia rettgeri, overnight 37° C., read-out: Minimum Inhibitory Concentration (M.I.C.)
Source text: as §1

K. pneumoniae A-15130 = assay: MIC, tube dilution, Klebsiella pneumoniae A15130; type: cell-based; conditions: Klebsiella pneumoniae, A15130, K. pneumoniae A15130; overnight 37° C.; read-out: Minimum Inhibitory Concentration (M.I.C.)
Source text: as §1

[2] = system: Klebsiella species A20468; assay: MIC, tube dilution, Klebsiella species A20468; type: cell-based; conditions: Klebsiella species (K. pneumoniae) A20468; overnight 37° C.; read-out: Minimum Inhibitory Concentration (M.I.C.)
Source text: as §1

E. coli A-20341-1 = assay: MIC, tube dilution, Escherichia coli A20341-1; type: cell-based
Source text: as §1

Str. pneumoniae A-9585 = assay: MIC, tube dilution, Streptococcus pneumoniae A9585; type: cell-based; conditions: Streptococcus pneumoniae, A9585, Str. pneumoniae A9585; overnight 37° C., Nutrient Broth; read-out: Minimum Inhibitory Concentration (M.I.C.)
Source text: as §1

[3] = system: Staph. aureus (Pen-Res) A-9606; assay: MIC, tube dilution, Staphylococcus aureus A9606 (Pen-Res); type: cell-based; conditions: Staphylococcus aureus, overnight 37° C.
Source text: as §1

Pr. morganii A-15153 = assay: MIC, tube dilution, Proteus morganii A15153; type: cell-based; conditions: Morganella morganii, A15153, Proteus morganii A15153; overnight 37° C.; read-out: Minimum Inhibitory Concentration (M.I.C.)
Source text: as §1

Ps. aeruginosa A-9843A = assay: MIC, tube dilution, Pseudomonas aeruginosa A9843A; type: cell-based; conditions: Pseudomonas aeruginosa, A9843A, read-out: Minimum Inhibitory Concentration (M.I.C.), Pseudomonas aeruginosa A9843A; overnight 37° C.
Source text: as §1

Pr. mirabilis A-9900 = assay: MIC, tube dilution, Proteus mirabilis A9900; type: cell-based; conditions: Proteus mirabilis, A9900, Proteus mirabilis A9900; overnight 37° C.; read-out: Minimum Inhibitory Concentration (M.I.C.)
Source text: as §1

Ent. cloacae A-9656 = assay: MIC, tube dilution, Enterobacter cloacae A9656; type: cell-based; conditions: Enterobacter cloacae A9656; overnight 37° C.; read-out: Minimum Inhibitory Concentration (M.I.C.)
Source text: as §1

Pr. vulgaris A-9716 = assay: MIC, tube dilution, Proteus vulgaris / Proteus mirabilis A9716; type: cell-based, Proteus vulgaris (name changed to Proteus mirabilis); conditions: Proteus vulgaris, overnight 37° C.
Source text: as §1

Staph. aureus A-9537 = assay: MIC, tube dilution, Staphylococcus aureus A9537; type: cell-based; conditions: Staphylococcus aureus, A9537, Staph. aureus A9537; overnight 37° C., Nutrient Broth; read-out: Minimum Inhibitory Concentration (M.I.C.)
Source text: as §1

[4] = system: Staph. aureus (Meth-Res) A-15097; assay: MIC, tube dilution, Staphylococcus aureus A15097 (Meth-Res); type: cell-based; conditions: overnight 37° C.; for MIC: Staphylococcus aureus
Source text: as §1

Str. faecalis A-20688 = assay: MIC, tube dilution, Streptococcus faecalis A20688; type: cell-based; conditions: Enterococcus faecalis, A20688, Str. faecalis A20688; overnight 37° C.; read-out: Minimum Inhibitory Concentration (M.I.C.)
Source text: as §1

Ps. aeruginosa A-21213 = assay: MIC, tube dilution, Pseudomonas aeruginosa A21213; type: cell-based; conditions: Pseudomonas aeruginosa A21213; overnight 37° C.; read-out: Minimum Inhibitory Concentration (M.I.C.)
Source text: as §1

Proteus vulgaris A21559 = assay: MIC, tube dilution, Proteus vulgaris A21559; type: cell-based; conditions: Proteus vulgaris, A21559, Proteus vulgaris A21559; overnight 37° C.; read-out: Minimum Inhibitory Concentration (M.I.C.)
Source text: as §1

S. aureus A9537 = assay: In vivo protection of mice, lethal infection with S. aureus A9537; conditions: Staphylococcus aureus, A9537, im, IM, 2 treatments, 8 × 10^5 organisms; read-out: PD50
Experimental: Representative compounds of the present invention were also tested in vivo in mice and their PD50 (dose of compound in mg/kg required to protect 50% of the treated mice against an otherwise lethal infection of a micro-organism) values determined with respect to the test organisms shown below.

[5] = Escherichia coli, A203411; E. coli A20341-1; overnight 37° C.; read-out: Minimum Inhibitory Concentration (M.I.C.)
[6] = read-out: Minimum Inhibitory Concentration (M.I.C.), Staph. aureus A9606 (Pen-Res)
[7] = read-out: Minimum Inhibitory Concentration (M.I.C.), Staph. aureus A15097 (Meth-Res)
[8] = A9716, Proteus vulgaris / Proteus mirabilis A9716, read-out: Minimum Inhibitory Concentration (M.I.C.)
[9] = A21203, Proteus rettgeri A21203
[10] = Staph. aureus A9606 (Pen-Res), read-out: Minimum Inhibitory Concentration (M.I.C.)

CCCCC1=C(C(=O)[O-])N2C(=O)C[C@H]2S1.[Na+] [Preparation 24, Sodium 2-butylpenem-3-carboxylate]
MIC (Ent. cloacae A-9659): 63 µg/mL | MIC (E. coli A-15119): 16 µg/mL | MIC (Ser. marcescens A-20019): 32 µg/mL | MIC (Str. pyogenes A-9604): 1 µg/mL | MIC [1]: > 63 µg/mL | MIC (Proteus rettgeri A21203; Proteus rettgeri A21203): 8 µg/mL | MIC (K. pneumoniae A-15130): 63 µg/mL | MIC [2]: > 125 µg/mL | MIC (E. coli A-20341-1; [5]): > 125 µg/mL | MIC (Str. pneumoniae A-9585): 0.25 µg/mL | MIC [3, 6]: 4 µg/mL | MIC (Pr. morganii A-15153): 16 µg/mL | MIC (Ps. aeruginosa A-9843A): 125 µg/mL | MIC (Pr. mirabilis A-9900): 2 µg/mL | MIC (Ent. cloacae A-9656): 63 µg/mL | MIC (Pr. vulgaris A-9716; A9716, read-out: Minimum Inhibitory Concentration (M.I.C.), Proteus vulgaris / Proteus mirabilis A9716): 2 µg/mL | MIC (Staph. aureus A-9537): 0.13 µg/mL | MIC [4, 7]: 125 µg/mL | MIC (Str. faecalis A-20688): 63 µg/mL | MIC (Ps. aeruginosa A-21213): 125 µg/mL

CON=C(C)CC1=C(C(=O)O)N2C(=O)CC2S1 (stereo not shown) [Example 44, Sodium 2-(Acetonylmethyl oxime)-penem-3-carboxylate]
MIC (Ent. cloacae A-9659): > 125 µg/mL | MIC (E. coli A-15119): 63 µg/mL | MIC (Ser. marcescens A-20019): > 125 µg/mL | MIC (Str. pyogenes A-9604): 16 µg/mL | MIC [1]: > 63 µg/mL | MIC (Proteus rettgeri A21203; Proteus rettgeri A21203): 125 µg/mL | MIC (K. pneumoniae A-15130): > 125 µg/mL | MIC [2]: > 125 µg/mL | MIC (E. coli A-20341-1; [5]): > 125 µg/mL | MIC (Str. pneumoniae A-9585): 2 µg/mL | MIC [3, 6]: > 125 µg/mL | MIC (Pr. morganii A-15153): 125 µg/mL | MIC (Ps. aeruginosa A-9843A): 125 µg/mL | MIC (Pr. mirabilis A-9900): 63 µg/mL | MIC (Ent. cloacae A-9656): > 125 µg/mL | MIC (Pr. vulgaris A-9716; [8]): 63 µg/mL | MIC (Staph. aureus A-9537): 32 µg/mL | MIC [4, 7]: > 125 µg/mL | MIC (Str. faecalis A-20688): 125 µg/mL | MIC (Ps. aeruginosa A-21213): 125 µg/mL

NCC1CC1C1=C(C(=O)O)N2C(=O)CC2S1 [Example 79, (1'R,2'S,5S and 1'S,2'R,5S; 1'S,2'R,5R and 1'R,2'S,5S) 2-(trans-2-aminomethyl-1-cyclopropyl)-penem-3-carboxylic acid]
MIC (Proteus vulgaris A21559): 16 µg/mL (≈ 66.6 µM) | MIC (Ent. cloacae A-9659): 32 µg/mL (≈ 133 µM) | MIC (E. coli A-15119): 4 µg/mL (≈ 16.6 µM) | MIC (Ser. marcescens A-20019): 8 µg/mL (≈ 33.3 µM) | MIC (Str. pyogenes A-9604): 0.03 µg/mL (≈ 0.125 µM) | MIC [1]: 0.25 µg/mL | MIC (Proteus rettgeri A21203; [9]): 8 µg/mL (≈ 33.3 µM) | MIC (K. pneumoniae A-15130): 16 µg/mL (≈ 66.6 µM) | MIC [2]: > 63 µg/mL | MIC (E. coli A-20341-1; Escherichia coli, A203411, E. coli A20341-1; overnight 37° C.; read-out: Minimum Inhibitory Concentration (M.I.C.)): 16 µg/mL (≈ 66.6 µM) | MIC (Str. pneumoniae A-9585): 0.016 µg/mL (≈ 0.0666 µM) | MIC [3, 10]: 0.5 µg/mL (≈ 2.08 µM) | MIC (Pr. morganii A-15153): 16 µg/mL (≈ 66.6 µM) | MIC (Pr. mirabilis A-9900): 8 µg/mL (≈ 33.3 µM) | MIC (Staph. aureus A-9537): 0.06 µg/mL (≈ 0.25 µM) | Minimum Inhibitory Concentration (M.I.C.) ([4]; Staph. aureus A15097 (Meth-Res)): 125 µg/mL | MIC ([4]; Staph. aureus A15097 (Meth-Res), read-out: Minimum Inhibitory Concentration (M.I.C.)): > 63 µg/mL | MIC (Str. faecalis A-20688): 16 µg/mL (≈ 66.6 µM) | ED50 (S. aureus A9537): 0.8 mg/kg

CC(C)(C)CC1=C(C(=O)O)N2C(=O)CC2S1 (stereo not shown) [Preparation 23, 2-(2',2'-Dimethylpropyl)penem-3-carboxylate]
MIC (Ent. cloacae A-9659): 125 µg/mL (≈ 518 µM) | MIC (E. coli A-15119): 16 µg/mL (≈ 66.3 µM) | MIC (Ser. marcescens A-20019): 125 µg/mL (≈ 518 µM) | MIC (Str. pyogenes A-9604): 0.25 µg/mL (≈ 1.04 µM) | MIC [1]: > 63 µg/mL | MIC (Proteus rettgeri A21203; [9]): 32 µg/mL (≈ 133 µM) | MIC (K. pneumoniae A-15130): 125 µg/mL (≈ 518 µM) | MIC [2]: > 125 µg/mL | MIC (E. coli A-20341-1; [5]): > 125 µg/mL | MIC (Str. pneumoniae A-9585): 0.25 µg/mL (≈ 1.04 µM) | MIC [3, 10]: 32 µg/mL (≈ 133 µM) | MIC (Pr. morganii A-15153): 63 µg/mL (≈ 261 µM) | MIC (Ps. aeruginosa A-9843A): > 125 µg/mL | MIC (Pr. mirabilis A-9900): 2 µg/mL (≈ 8.29 µM) | MIC (Ent. cloacae A-9656): > 125 µg/mL | MIC (Pr. vulgaris A-9716; [8]): 4 µg/mL (≈ 16.6 µM) | MIC (Staph. aureus A-9537): 0.25 µg/mL (≈ 1.04 µM) | MIC [4, 7]: 125 µg/mL (≈ 518 µM) | MIC (Str. faecalis A-20688): > 125 µg/mL | MIC (Ps. aeruginosa A-21213): > 125 µg/mL
